Results on eleven compounds are retold here after patent US10766869B2, “Triazoles for the treatment of demyelinating dieases” (Vertex Pharmaceuticals Incorporated, priority 2015, dated 2020).

Molecules are shown by their SMILES. Read-outs that look alike come from different tables or passages of the source. A value given as a limit tells only on which side of the number the result lay.

The test system of this experiment is primary rat mixed cortical cells. In words: In vitro myelination assay (MBP positive myelin strands, fold myelin pixels above background). The experiment is classed as cell-based. The following applies: Rattus norvegicus; for fold induction at 1 µM: 1.0 μM compound; for fold induction at 10 µM: 10.0 μM compound. The method in brief:
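Mixed cortical culture, P1 rat, 87,500-95,000 cells/well; compound present from seeding, refreshed days 6 and 10; 14 d, 37 °C, 5% CO2. Day 14: PFA fix, anti-MBP + Hoechst. Read-out: fold MBP myelin pixels over untreated, tested at 1.0 and 10.0 μM.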

[1] abbreviates: relative to baseline of no added compound, read-out: Fold myelin pixels above background, 1.0 μM.
Where [2] appears, read: relative to baseline of no added compound, read-out: Fold myelin pixels above background, 10.0 μM.
[3] abbreviates: relative to baseline of no added compound, read-out: Fold myelin pixels above background.
[4] abbreviates: read-out: Fold myelin pixels above background relative to baseline of no added compound.

For the compound `COc1cc(Nc2ncn(-c3ccc(F)cc3)n2)cc(N2CCN(C3COC3)CC2)c1` [Compound 102, 1-(4-fluorophenyl)-N-[3-methoxy-5-[4-(oxetan-3-yl)piperazin-1-yl]phenyl]-1,2,4-triazol-3-amine], under setting [1], the fold induction at 1 µM lay in the range of 100 to 1000. In addition, the fold induction at 10 µM under setting [2] was in the range of 1 to 10.

For the compound `COc1cc(Nc2ncn(-c3ccc(Cl)c(F)c3)n2)nc(N2CCN(C3COC3)CC2)c1` [Compound 758, N-[1-(4-chloro-3-fluoro-phenyl)-1,2,4-triazol-3-yl]-4-methoxy-6-[4-(oxetan-3-yl)piperazin-1-yl]pyridin-2-amine], under setting [3], the fold induction at 1 µM fell in the range of 10 to 100 and the fold induction at 10 µM was in the range of 10 to 100.

For the compound `Cc1cc(NCC2CC2)cc(Nc2ncn(-c3cc(F)cc(F)c3)n2)c1` [Compound 942, N3-(cyclopropylmethyl)-N1-[1-(3,5-difluorophenyl)-1,2,4-triazol-3-yl]-5-methyl-benzene-1,3-diamine], under setting [4], the fold induction at 1 µM is 1 to 10 and the fold induction at 10 µM was ≤ 1.

With `COC(=O)N1CCC(c2cc(C)cc(Nc3ncn(-c4ccccc4)n3)c2)CC1` [Compound 12, methyl 4-[3-methyl-5-[(1-phenyl-1,2,4-triazol-3-yl)amino]phenyl]piperidine-1-carboxylate], under setting [1], the fold induction at 1 µM fell in the range of 100 to 1000. In addition, the fold induction at 10 µM under setting [2] fell in the range of 1 to 10.

For the compound `COCCN1CCN(c2cc(C)cc(Nc3ncn(-c4cc(F)cc(F)c4)n3)c2)CC1C` (stereo not shown) [Compound 1011, 1-(3,5-difluorophenyl)-N-[3-[4-(2-methoxyethyl)-3-methyl-piperazin-1-yl]-5-methyl-phenyl]-1,2,4-triazol-3-amine], under setting [4], the fold induction at 1 µM was 10 to 100 and the fold induction at 10 µM was ≤ 1.

Take `Cc1cc(Nc2ncn(-c3ccccc3)n2)cc(N2CCC(F)CC2)n1` [Compound 430, 2-(4-fluoro-1-piperidyl)-6-methyl-N-(1-phenyl-1,2,4-triazol-3-yl)pyridin-4-amine]: under setting [3], the fold induction at 1 µM was 100 to 1000 and the fold induction at 10 µM was ≤ 1.

For `Fc1cc(F)cc(-n2cnc(Nc3cc(C4CCOC4)cc(N4CCOCC4)c3)n2)c1` (stereo not shown) [Compound 456, 1-(3,5-difluorophenyl)-N-(3-morpholino-5-tetrahydrofuran-3-yl-phenyl)-1,2,4-triazol-3-amine], under setting [3], the fold induction at 1 µM lay within 1000 to 10000 and the fold induction at 10 µM was in the range of 100 to 1000.

As to `Cc1cc(Nc2ncn(-c3cc(F)cc(N4CCC(CO)C4)c3)n2)cc(N2CCN(C3COC3)CC2)c1` (stereo not shown) [Compound 480, [1-[3-fluoro-5-[3-[3-methyl-5-[4-(oxetan-3-yl)piperazin-1-yl]anilino]-1,2,4-triazol-1-yl]phenyl]pyrrolidin-3-yl]methanol], under setting [3], the fold induction at 1 µM was 10 to 100 and the fold induction at 10 µM is ≤ 1.

As to `Cc1cc(Nc2ncn(-c3cc(F)cc(F)c3)n2)cc(N2CCN(C)C(CCO)C2)c1` (stereo not shown) [Compound 1026, 2-[4-[3-[[1-(3,5-difluorophenyl)-1,2,4-triazol-3-yl]amino]-5-methyl-phenyl]-1-methyl-piperazin-2-yl]ethanol], under setting [4], the fold induction at 1 µM was 1 to 10 and the fold induction at 10 µM was in the range of 1 to 10.

With `CNC1CCN(c2cc(C)cc(Nc3ncn(-c4cc(F)cc(F)c4)n3)c2)C1` (stereo not shown) [Compound 267, 1-(3,5-difluorophenyl)-N-[3-methyl-5-[3-(methylamino)pyrrolidin-1-yl]phenyl]-1,2,4-triazol-3-amine], under setting [1], the fold induction at 1 µM lay within 10 to 100. The fold induction at 10 µM under setting [2] is ≤ 1.

`CC(F)(F)c1cc(Nc2ncn(-c3cc(F)cc(F)c3)n2)nc(N2CCN(C3COC3)CC2)c1` [Compound 685, 4-(1,1-difluoroethyl)-N-[1-(3,5-difluorophenyl)-1,2,4-triazol-3-yl]-6-[4-(oxetan-3-yl)piperazin-1-yl]pyridin-2-amine]: under setting [3], the fold induction at 1 µM is 10 to 100 and the fold induction at 10 µM was in the range of 1 to 10.
